Values of other authors, collected in patent US8377484B1, “Tumor encapsulation for prevention and treatment of metastatic cancer disease” (priority 2004, dated 2013).

How the values were obtained:
[1] = test system: differentiated C2C12 myotubes
[2] = test system: Cultured primary rat Schwann cells
[3] = test system: human breast cancer cells

EHS Laminin-1: major BM structural protein, heterotrimeric laminin from mouse EHS
time for laminin-based BM to form on myotube surface ([1]; incubation with 5-10 microg/ml of laminin-1): ≤ 4 h | concentration able to induce BM assembly ([2]; cultured cells in vitro): 2 mkg/ml

O=c1c(-c2ccc(O)cc2)coc2cc(O)cc(O)c12 [genistein, 5,7,4′-trihydroxyisoflavone]
promotion of BM competency ([1]; cell cultures of differentiated myotubes): promote BM competency | inhibition of cancer cells proliferation [3]: inhibit cancer cells proliferation | promotion of BM competency ([2]; cell cultures of glial Schwann cells): promote BM competency

O=c1c(-c2ccc(O)cc2)coc2cc(O)ccc12 [daidzein]
inhibition of cancer cells proliferation [3]: inhibit cancer cells proliferation
